Values of other authors in patent publication US20040116329A1, “Inhibition of proteasomes to prevent restenosis” (priority 2004, published 2004).
Like-named read-outs stand apart in the source and are kept apart here.

Columns and labels:
[1] = test system: apoptosis; details: through stabilization of proteins critical for cell cycle progression and control of apoptosis
[2] = test system: various tumors
[3] = given orally
[4] = test system: SMC; details: in vitro
[5] = test system: SMC; details: in vitro; remark: listed apart in the source
[6] = test system: neointimal accumulation; details: in vivo, rat carotid artery injury model
[7] = test system: apoptosis; details: biologically relevant concentrations

SMILES | induction of apoptosis [1] | activity in tumor treatment in combination ([2]; in combination with standard chemotherapeutic agents or radiation) | volume of various tumors ([2]; in vivo) | major side effects [3] | platelet-derived growth factor-stimulated SMC migration [4] | SMC proliferation [5] | neointimal accumulation [6] | induction of apoptosis [7]
CC(C)C[C@H](NC(=O)[C@H](Cc1ccccc1)NC(=O)c1cnccn1)B(O)O [LDP-341] | induce apoptosis | appears very active | effective in reducing the volume of various tumors | gastrointestinal in nature | – | – | – | –
CC(=O)O[C@H]1C(=O)[C@@]2(C)[C@H]([C@H](OC(=O)c3ccccc3)[C@]3(O)C[C@H](OC(=O)[C@H](O)[C@@H](NC(=O)c4ccccc4)c4ccccc4)C(C)=C1C3(C)C)[C@]1(OC(C)=O)CO[C@@H]1C[C@@H]2O [paclitaxel] | – | – | – | – | inhibited | inhibited | inhibited neointimal accumulation | does not appear to induce apoptosis
